In ChEMBL document CHEMBL1131585, “Novel orally active growth hormone secretagogues” (J Med Chem, 1998):
Where a SMILES comes first, the peptide text is derived from it. [ ]: non-standard residue; d: D form. d2Nal = N[C@H](Cc1ccc2ccccc2c1)C(=O)O; Aib = CC(C)(N)C(=O)O

Legend:
[1] = Compound was tested for oral bioavailability after 10 mg/kg administration (Po) in Beagle dogs; F % Oral Bioavailability; format: ADME, organism-based, Canis lupus familiaris; details: dog, in vivo
[2] = Oral bioavailability in dog (Beagle) (dose 2.5 mg/kg); format: ADME, organism-based, Canis lupus familiaris; details: in vivo
[3] = Oral bioavailability in dog (Beagle); format: ADME, organism-based, Canis lupus familiaris; details: in vivo; for bioavailability: beagle
Rattus norvegicus [4] = species on record: Rattus norvegicus; assay: Compound was tested against the effect of D-Lys3-GHRP-6 on the release of growth hormone from pituitary cells in rat; format: functional, cell-based; details: Pituitary gland cell
Rattus norvegicus [5] = species on record: Rattus norvegicus; assay: Compound was tested against the effect of L-692400 on the release of growth hormone from pituitary cells in rat; format: functional, cell-based; details: Pituitary gland cell
[6] = biological target: Growth hormone secretagogue receptor type 1 (Rattus norvegicus, UniProt O08725); assay: (§1) Tested for GH-releasing property using classical rat pituitary cell assay; format: functional, cell-based, Pituitary gland cell
Rattus norvegicus [7] = species on record: Rattus norvegicus; assay: Compound was tested against the effect of N-acetyl-Tyr-D-Arg(1-29)GHRH-NH2 on the release of growth hormone from pituitary cells in rat; format: functional, cell-based; details: Pituitary gland cell
Rattus norvegicus [8] = species on record: Rattus norvegicus; assay: Compound was tested against the effect of substance P antagonist on the release of growth hormone from pituitary cells in rat; format: functional, cell-based; details: Pituitary gland cell
Sus scrofa [9] = assay: Compound was tested for potency against GH release iv administration in swine; format: functional
Sus scrofa [10] = assay: Compound was tested for efficacy against GH release iv administration in swine; format: functional
[11] = Compound was tested for maximum concentration in blood after 10 mg/kg administration (Po) in Beagle dogs; nmol/L maximum blood concentration; details: dog
[12] = Compound was tested for maximum concentration in blood after 2.5 mg/kg administration (Po) in Beagle dogs; nmol/L maximum blood concentration; details: dog
[13] = biological target: Growth hormone secretagogue receptor type 1 (Rattus norvegicus) (UniProt O08725); assay: as §1; format: functional, cell-based; details: Pituitary gland cell
Sus scrofa [14] = assay: Tested for in vivo activity against GH release after iv administration in swine
Canis familiaris [15] = assay: Compound was tested Growth Hormone(GH) release after 0.5 mg/kg administration (Po) in Beagle dogs; format: functional, organism-based; set-up: dose 0.5 mg/kg; details: Canis lupus familiaris
Canis familiaris [16] = assay: Compound was tested Growth Hormone(GH) release after 10 mg/kg administration (Po) in Beagle dogs; format: functional, organism-based; set-up: dose 10 mg/kg; details: Canis lupus familiaris
Canis familiaris [17] = assay: Compound was tested Growth Hormone(GH) release after 2.5 mg/kg administration (Po) in Beagle dogs; format: functional, organism-based; set-up: dose 2.5 mg/kg; details: Canis lupus familiaris
Sus scrofa [18] = assay: Compound was tested for potency against GH release upon iv administration in swine; format: functional
Sus scrofa [19] = assay: Compound was tested for efficacy against GH release upon iv administration in swine; format: functional
[20] = Compound was tested for maximum blood concentration after 0.5 mg/kg administration (Po) in Beagle dogs; nM/L maximum blood concentration; format: ADME, organism-based, Canis lupus familiaris; set-up: route oral, dose 0.5 mg/kg; details: dog
[21] = Compound was tested for maximum blood concentration after 10 mg/kg administration (Po) in Beagle dogs; nM/L maximum blood concentration; format: ADME, organism-based, Canis lupus familiaris; set-up: route oral, dose 10 mg/kg; details: dog
[22] = Compound was tested for maximum blood concentration after 2.5 mg/kg administration (Po) in Beagle dogs; nM/L maximum blood concentration; format: ADME, organism-based, Canis lupus familiaris; set-up: route oral, dose 2.5 mg/kg; details: dog
[23] = Compound was tested for oral bioavailability after 0.5 mg/kg administration (Po) in Beagle dogs; fpo % Oral Bioavailability; format: ADME, organism-based, Canis lupus familiaris; details: dog, in vivo
[24] = Compound was tested for oral bioavailability after 10 mg/kg administration (Po) in Beagle dogs; fpo % Oral Bioavailability; format: ADME, organism-based, Canis lupus familiaris; details: dog, in vivo

Sequence of Growth hormone secretagogue receptor type 1 (O08725 whole entry): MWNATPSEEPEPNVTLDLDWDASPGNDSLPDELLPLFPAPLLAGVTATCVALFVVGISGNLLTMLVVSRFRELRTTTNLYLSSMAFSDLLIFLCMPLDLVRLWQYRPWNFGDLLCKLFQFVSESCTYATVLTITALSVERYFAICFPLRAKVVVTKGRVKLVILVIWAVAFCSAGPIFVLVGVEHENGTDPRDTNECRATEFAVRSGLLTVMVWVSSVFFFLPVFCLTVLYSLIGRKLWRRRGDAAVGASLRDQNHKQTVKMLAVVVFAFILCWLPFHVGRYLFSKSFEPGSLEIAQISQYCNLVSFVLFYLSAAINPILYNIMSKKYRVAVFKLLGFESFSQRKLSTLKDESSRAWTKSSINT
Sequence of Growth hormone secretagogue receptor type 1 (Rattus norvegicus) (O08725 whole entry): as above

SMILES | EC50 [6] [µM] | Emax [13] [%] | bioavailability [3] [%] | Cmax [GH] (Sus scrofa [14]) [ng/mL] | also measured
C[C@@H](O)CNC(=O)[C@@H](Cc1ccccc1)N(C)C(=O)[C@@H](Cc1ccc2ccccc2c1)N(C)C(=O)/C=C/CC(C)(C)N (stereo in doubt; 7b) [listing 1 of 2 here] | 0.0089 | – | – | – | bioavailability [1]: 41%; bioavailability [2]: 21%; F [3]: 25%; IC50 (Rattus norvegicus [4]): 8 µM; IC50 (Rattus norvegicus [5]): 11 µM; IC50 (Rattus norvegicus [7]): > 10 µM; IC50 (Rattus norvegicus [8]): 0.14 µM; ED50 (Sus scrofa [9]): 0.031 µmol/kg; Emax (Sus scrofa [10]): 96 ng/mL; Cmax [11]: 2320 nM; Cmax [12]: 260 nM
C[C@H](O)CNC(=O)[C@@H](Cc1cccs1)N(C)C(=O)[C@@H](Cc1ccc2ccccc2c1)N(C)C(=O)/C=C/CC(C)(C)N | 0.045 | 120 | – | – | –
CNC(=O)[C@@H](Cc1ccccc1)N(C)C(=O)[C@@H](COCc1ccccc1)N(C)C(=O)/C=C/CC(C)(C)N | 0.005 | 125 | 11 | 0.4 | –
CNC(=O)[C@@H](Cc1ccc(F)c(F)c1)N(C)C(=O)[C@@H](Cc1ccc2ccccc2c1)N(C)C(=O)/C=C/CC(C)(C)N | 0.017 | 85 | 54 | 6 | –
CNC(=O)[C@@H](Cc1ccccc1)N(C)C(=O)[C@@H](Cc1ccc2ccccc2c1)N(C)C(=O)/C=C/CC(C)(C)N [TABIMORELIN] | 0.018 | 110 | – | – | –
CN(C(=O)/C=C/CC(C)(C)N)[C@H](Cc1ccc2ccccc2c1)C(=O)N(C)[C@H](Cc1ccccc1)C(=O)NCC1CC1 | 0.0018 | 105 | 24 | 14 | –
CNC(=O)[C@@H](Cc1cccs1)N(C)C(=O)[C@@H](Cc1ccc2ccccc2c1)N(C)C(=O)/C=C/CC(C)(C)N | 0.002 | 110 | 15 | 55 | –
C[C@H](O)CNC(=O)[C@@H](Cc1ccc(F)c(F)c1)N(C)C(=O)[C@@H](Cc1ccc2ccccc2c1)N(C)C(=O)/C=C/CC(C)(C)N | 0.005 | 100 | – | 5 | –
CNC(=O)[C@@H](Cc1ccccc1)N(C)C(=O)[C@@H](Cc1csc2ccccc12)N(C)C(=O)/C=C/CC(C)(C)N | 0.035 | 80 | – | – | –
CNC(=O)[C@@H](Cc1ccc(I)cc1)N(C)C(=O)[C@@H](Cc1ccc2ccccc2c1)N(C)C(=O)/C=C/CC(C)(C)N | 0.02 | 110 | 26 | 0.4 | –
CC(C)(N)C(=O)N[C@@H](Cc1c[nH]cn1)C(=O)N[C@H](Cc1ccc2ccccc2c1)C(=O)N[C@H](Cc1ccccc1)C(=O)N[C@@H](CCCCN)C(N)=O [IPAMORELIN] (H-[Aib]H[d2Nal][dF]K-NH2) | – | – | – | – | ED50 (Sus scrofa [9]): 0.0023 µmol/kg; Emax (Sus scrofa [10]): 65 ng/mL
C[C@@H](O)CNC(=O)[C@@H](Cc1ccccc1)N(C)C(=O)[C@@H](Cc1ccc2ccccc2c1)N(C)C(=O)/C=C/CC(C)(C)N (stereo in doubt; 7o) [listing 1 of 2 here] | – | 105 | – | 9 | –
C[C@@H](O)CNC(=O)[C@@H](Cc1ccccc1)N(C)C(=O)[C@@H](Cc1ccc2ccccc2c1)N(C)C(=O)/C=C/CC(C)(C)N (stereo in doubt; 7o) [listing 2 of 2 here] | 0.009 | – | – | – | F [3]: 0%
CN(C(=O)/C=C/CC(C)(C)N)[C@H](Cc1cccc2ccccc12)C(=O)N(C)[C@H](Cc1ccccc1)C(=O)NCC1CCCO1 (stereo partly drawn) | 0.021 | 110 | – | – | –
CNC(=O)[C@@H](Cc1ccccc1)N(C)C(=O)[C@@H](Cc1cccc2ccccc12)N(C)C(=O)/C=C/CC(C)(C)N | 0.024 | 115 | – | 12 | –
CNC(=O)[C@@H](Cc1ccccc1)N(C)C(=O)[C@@H](Cc1ccc(-c2ccccc2)cc1)N(C)C(=O)/C=C/CC(C)(C)N | 0.003 | 120 | 0 | – | –
C[C@@H](O)CNC(=O)[C@@H](Cc1ccccc1)N(C)C(=O)[C@@H](Cc1ccc2ccccc2c1)N(C)C(=O)/C=C/CC(C)(C)N (stereo in doubt; 7b) [listing 2 of 2 here] | – | 130 | – | 26 | Cmax [GH] (Canis familiaris [15]): 1.8 ng/mL; Cmax [GH] (Canis familiaris [16]): 42.5 ng/mL; Cmax [GH] (Canis familiaris [17]): 6.6 ng/mL
C[C@H](NC(=O)C(Cc1c[nH]c2ccccc12)NC(=O)[C@@H](N)Cc1c[nH]cn1)C(=O)N[C@@H](Cc1c[nH]c2ccccc12)C(=O)NC(Cc1ccccc1)C(=O)N[C@@H](CCCCN)C(N)=O (single isomer, unassigned) | – | 100 | – | – | IC50 (Rattus norvegicus [4]): 8 µM; IC50 (Rattus norvegicus [5]): 10 µM; IC50 (Rattus norvegicus [7]): > 10 µM; IC50 (Rattus norvegicus [8]): 0.038 µM; ED50 (Sus scrofa [18]): 0.0039 µmol/kg; Emax (Sus scrofa [19]): 74 ng/mL
CNC(=O)[C@@H](Cc1ccc(F)cc1)N(C)C(=O)[C@@H](Cc1ccc2ccccc2c1)N(C)C(=O)/C=C/CC(C)(C)N | 0.008 | 90 | 49 | 30 | Cmax [GH] (Canis familiaris [15]): 2.7 ng/mL; Cmax [GH] (Canis familiaris [16]): 12 ng/mL; Cmax [GH] (Canis familiaris [17]): 4.5 ng/mL; Cmax [20]: 99 nM; Cmax [21]: 3030 nM; Cmax [22]: 247 nM; bioavailability [23]: 53%; bioavailability [24]: 138%; bioavailability [2]: 55%; IC50 (Rattus norvegicus [4]): 9 µM; IC50 (Rattus norvegicus [5]): 14 µM; IC50 (Rattus norvegicus [7]): > 10 µM; IC50 (Rattus norvegicus [8]): 0.049 µM; ED50 (Sus scrofa [9]): 0.129 µmol/kg; Emax (Sus scrofa [10]): 86 ng/mL
CN(C(=O)/C=C/CC(C)(C)N)[C@H](Cc1ccc2ccccc2c1)C(=O)N(C)[C@H](Cc1ccccc1)C(=O)NCC1CCCO1 (stereo partly drawn) | 0.016 | 100 | 17 | 9 | –
CCNC(=O)[C@@H](Cc1ccccc1)N(C)C(=O)[C@@H](Cc1ccc2ccccc2c1)N(C)C(=O)/C=C/CC(C)(C)N | 0.013 | 105 | 14 | – | –
